Measurements reported in patent US9113629B2, “4-amino-6-(4-substituted-phenyl)-picolinates and 6-amino-2-(4-substituted-phenyl)-pyrimidine-4-carboxylates and their use as herbicides” (DOW AGROSCIENCES LLC, priority 2013, dated 2015).
Read-outs that look alike come from different tables or passages of the source.

What was measured:
[1] = tested on: Key Grass and Sedge Weeds as well as Grass Crops; assay: Post-emergent Test II herbicidal activity (Table 6); assay type: in vivo; conditions: post-emergence, 336 h; for pest or weed control at 70 g/ha: 70 g ai/ha; for pest or weed control at 140 g/ha: 140 g ai/ha
Summary of the method: (§1)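 Visual injury ratings (0 = no injury, 100 = complete kill) were taken 14 d after treatment, relative to untreated plants. Seedlings at the first–second true leaf stage received overhead spray at 187 L/ha; the highest rate was serially diluted to ½×, ¼×, ⅛× and 1/16×.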

[2] = tested on: Key Broadleaf Weed and Crop Species; assay: Post-emergent Test II herbicidal activity (Table 5); assay type: in vivo; conditions: post-emergence, 336 h, 14 days after application; for pest or weed control at 70 g/ha: application rate 70 g ai/ha; for pest or weed control at 140 g/ha: application rate 140 g ai/ha
Summary of the method: as §1

[3] = CYPES: yellow nutsedge (Cyperus esculentus), read-out: Visual Growth Reduction (%) 14 Days After Application, CYPES
[4] = DIGSA: crabgrass (Digitaria sanguinalis), read-out: Visual Growth Reduction (%) 14 Days After Application, DIGSA
[5] = ECHCG: barnyardgrass (Echinochloa crus-galli), read-out: Visual Growth Reduction (%) 14 Days After Application, ECHCG
[6] = ORYSA: rice (Oryza sativa), crop, read-out: Visual Growth Reduction (%) 14 Days After Application, ORYSA
[7] = SETFA: giant foxtail (Setaria faberi), read-out: Visual Growth Reduction (%) 14 Days After Application, SETFA
[8] = SORVU: grain sorghum (Sorghum vulgare), read-out: Visual Growth Reduction (%) 14 Days After Application, SORVU
[9] = TRZSS (wheat, Triticum aestivum), crop, read-out: Visual Growth Reduction (%) 14 Days After Application, TRZSS
[10] = ZEAMX: maize, corn (Zea mays), crop, read-out: Visual Growth Reduction (%) 14 Days After Application, ZEAMX
[11] = ABUTH: velvetleaf (Abutilon theophrasti), read-out: Visual Growth Reduction (%) 14 Days After Application, ABUTH
[12] = AMARE: redroot pigweed (Amaranthus retroflexus), read-out: Visual Growth Reduction (%) 14 Days After Application, AMARE
[13] = BRSNN: oilseed-rape, canola (Brassica napus), read-out: Visual Growth Reduction (%) 14 Days After Application, BRSNN
[14] = CHEAL: lambsquarters (Chenopodium album), read-out: Visual Growth Reduction (%) 14 Days After Application, CHEAL
[15] = EPHHL: wild poinsettia (Euphorbia heterophylla), read-out: Visual Growth Reduction (%) 14 Days After Application, EPHHL
[16] = HELAN: sunflower (Helianthus annuus), read-out: Visual Growth Reduction (%) 14 Days After Application, HELAN
[17] = VIOTR: wild pansy (Viola tricolor), read-out: Visual Growth Reduction (%) 14 Days After Application, VIOTR

SMILES	melting point [°C]	pest or weed control at 140 g/ha [1, 3] [%]	pest or weed control at 70 g/ha [1, 4] [%]	pest or weed control at 140 g/ha [1, 4] [%]	pest or weed control at 70 g/ha [1, 5] [%]	pest or weed control at 140 g/ha [1, 5] [%]	pest or weed control at 70 g/ha [1, 6] [%]	pest or weed control at 140 g/ha [1, 6] [%]	pest or weed control at 70 g/ha [1, 7] [%]	pest or weed control at 140 g/ha [1, 7] [%]	pest or weed control at 70 g/ha [1, 8] [%]	pest or weed control at 140 g/ha [1, 8] [%]	pest or weed control at 70 g/ha [1, 9] [%]	pest or weed control at 140 g/ha [1, 9] [%]	pest or weed control at 70 g/ha [1, 10] [%]	pest or weed control at 140 g/ha [1, 10] [%]	pest or weed control at 70 g/ha [2, 11] [%]	pest or weed control at 140 g/ha [2, 11] [%]	pest or weed control at 70 g/ha [2, 12] [%]	pest or weed control at 140 g/ha [2, 12] [%]	also measured
COC(=O)c1nc(-c2ccc(I)cc2F)nc(N)c1OC [Compound 82]	159 to 162	95 to 100	0 to 29	0 to 29	45 to 59	85 to 94	0 to 29	0 to 29	0 to 29	0 to 29	0 to 29	45 to 59	30 to 44	30 to 44	95 to 100	95 to 100	95 to 100	95 to 100	95 to 100	95 to 100	pest or weed control at 70 g/ha [1, 3]: 95 to 100%; pest or weed control at 70 g/ha [2, 13]: 85 to 94%; pest or weed control at 140 g/ha [2, 13]: 85 to 94%; pest or weed control at 70 g/ha [2, 14]: 85 to 94%; pest or weed control at 140 g/ha [2, 14]: 95 to 100%; pest or weed control at 70 g/ha [2, 15]: 95 to 100%; pest or weed control at 140 g/ha [2, 15]: 95 to 100%; pest or weed control at 70 g/ha [2, 16]: 95 to 100%; pest or weed control at 140 g/ha [2, 16]: 95 to 100%; pest or weed control at 70 g/ha [2, 17]: 60 to 74%; pest or weed control at 140 g/ha [2, 17]: 75 to 84%
COC(=O)c1nc(-c2ccc(I)c(F)c2F)c(F)c(N)c1Cl [Compound 99]	168 to 170	95 to 100	75 to 84	85 to 94	95 to 100	95 to 100	0 to 29	0 to 29	95 to 100	95 to 100	95 to 100	95 to 100	45 to 59	60 to 74	95 to 100	95 to 100	95 to 100	95 to 100	95 to 100	95 to 100	pest or weed control at 70 g/ha [2, 13]: 95 to 100%; pest or weed control at 140 g/ha [2, 13]: 95 to 100%; pest or weed control at 70 g/ha [2, 14]: 95 to 100%; pest or weed control at 140 g/ha [2, 14]: 95 to 100%; pest or weed control at 70 g/ha [2, 15]: 95 to 100%; pest or weed control at 140 g/ha [2, 15]: 95 to 100%; pest or weed control at 70 g/ha [2, 16]: 95 to 100%; pest or weed control at 140 g/ha [2, 16]: 95 to 100%; pest or weed control at 70 g/ha [2, 17]: 95 to 100%; pest or weed control at 140 g/ha [2, 17]: 95 to 100%
